# Data reported in patent US20230167088A1, “1-PYRAZINYLPYRAZOLYL-3-OXYALKYL ACIDS AND THEIR DERIVATIVES, AND THEIR USE FOR CONTROL OF UNDESIRED PLANT GROWTH” (BAYER AKTIENGESELLSCHAFT, priority 2020, published 2023).
# What was measured:
# DIGSA [1] = experiment: Herbicidal post-emergence action 1b (twin sowing, 1280 g/ha); format: in vivo, Digitaria sanguinalis; details: dosage 1280 g/ha, visual rating about 3 weeks after treatment
# Experimental: (§1) [table] b) Seeds of mono- and dicotyledonous weed plants are placed in plastic pots in sandy loam soil (twin sowing with one species each of mono- or dicotyledonous weed plants per pot), covered with soil and cultivated in a greenhouse under controlled growth conditions. 2 to 3 weeks after sowing, the test plants are treated at the one-leaf stage. The compounds of the invention, formulated in the form of wettable powders (WP) or as emulsion concentrates (EC), are applied to the green parts of the plants as aqueous suspension or emulsion with addition of 0.5% additive at a water application rate equivalent to 600 litres per hectare. After the test plants have been kept in the greenhouse under optimum growth conditions for about 3 weeks, the activity of the preparations is rated visually in comparison to untreated controls. For example, 100% activity=the plants have died, 0% activity=like control plants. Tables A16 to A21 below show the effects of selected compounds of the general formula (I) according to Tables 1 and 2 on various harmful plants and at an application rate corresponding to 1280 g/ha, which were obtained by the experimental procedure mentioned above.
# POAAN [2] = experiment: as above; format: in vivo, Poa annua; details: dosage 1280 g/ha, visual rating about 3 weeks after treatment
# How it was run: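 Compounds formulated as WP or EC were applied with 0.5% additive in 600 L/ha water onto one-leaf-stage weeds, each pot sown with one monocot and one dicot species in sandy loam. After roughly 3 weeks in the greenhouse, visual percent activity was scored against untreated plants.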
# AMARE [3] = experiment: Herbicidal pre-emergence action 2b (doubly sown, 1280 g/ha); format: in vivo, Amaranthus retroflexus; details: doubly sown pots, dosage 1280 g/ha, visual scoring after about 3 weeks
# How it was run: (§2)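 Visual % scores against untreated plants (0% = like control, 100% = dead) were taken roughly 3 weeks after treatment in the greenhouse. Compounds, as WP or EC with 0.5% additive, were applied in 600 l/ha water onto covering soil over seeds of paired mono-/dicot weeds in sandy loam.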
# DIGSA [4] = experiment: as above; format: in vivo, Digitaria sanguinalis; details: doubly sown pots, dosage 1280 g/ha, visual scoring after about 3 weeks
# Description: [table] b) Seeds of mono- and dicotyledonous weed plants are placed in plastic pots in sandy loam soil (doubly sown with one species each of mono- or dicotyledonous weed plants per pot) and covered with soil. The compounds of the invention, formulated in the form of wettable powders (WP) or as emulsion concentrates (EC), are then applied onto the surface of the covering soil as aqueous suspension or emulsion with addition of 0.5% additive at a water application rate equivalent to 600 litres per hectare. After the treatment, the pots are placed in a greenhouse and kept under good growth conditions for the trial plants. After about 3 weeks, the effect of the preparations is scored visually in comparison with untreated controls as percentages. For example, 100% activity=the plants have died, 0% activity=like control plants. Tables B16 to B21 below show the effects of selected compounds of the general formula (I) according to Tables 1 and 2 on various harmful plants and at an application rate corresponding to 1280 g/ha, which were obtained by the experimental procedure mentioned above.
# ECHCG [5] = experiment: as above; format: in vivo, Echinochloa crus-galli; details: doubly sown pots, dosage 1280 g/ha, visual scoring after about 3 weeks
# How it was run: as §2
# POAAN [6] = experiment: as above; format: in vivo, Poa annua; details: doubly sown pots, dosage 1280 g/ha, visual scoring after about 3 weeks
# How it was run: as §2
# MATIN [7] = experiment: as above; format: in vivo, Matricaria inodora; details: doubly sown pots, dosage 1280 g/ha, visual scoring after about 3 weeks
# How it was run: as §2
# STEME [8] = experiment: as above; format: in vivo, Stellaria media; details: doubly sown pots, dosage 1280 g/ha, visual scoring after about 3 weeks
# How it was run: as §2
# STEME [9] = experiment: Herbicidal post-emergence action 1b (twin sowing, 1280 g/ha); format: in vivo, Stellaria media; details: dosage 1280 g/ha, visual rating about 3 weeks after treatment
# Experimental: as §1
# MATIN [10] = experiment: as above; format: in vivo, Matricaria inodora; details: dosage 1280 g/ha, visual rating about 3 weeks after treatment
# Experimental: as §1
# ECHCG [11] = experiment: as above; format: in vivo, Echinochloa crus-galli; details: dosage 1280 g/ha, visual rating about 3 weeks after treatment
# Experimental: as §1
# POLCO = experiment: Herbicidal pre-emergence action 2a (greenhouse pots, visual scoring); format: in vivo, Polygonum convolvulus; details: dosage 320 g/ha, visual scoring after about 3 weeks vs untreated controls
# How it was run: (§3)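 Weed and crop seeds placed in pots and covered with soil; aqueous suspension or emulsion of WP/EC formulation applied to the soil surface before emergence (600 l/ha, 0.5% additive, 320 and/or 80 g/ha). Pots kept in the greenhouse about 3 weeks; visual percentage scoring.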
# AVEFA [12] = experiment: as above; format: in vivo, Avena fatua; details: dosage 320 g/ha, visual scoring after about 3 weeks
# How it was run: as §3
# ALOMY [13] = experiment: as above; format: in vivo, Alopecurus myosuroides; details: dosage 320 g/ha, visual scoring after about 3 weeks
# How it was run: as §3
# AMARE [14] = experiment: Herbicidal post-emergence action 1a (greenhouse pots, visual rating); format: in vivo, Amaranthus retroflexus; details: dosage 80 g/ha, visual rating about 3 weeks after treatment
# How it was run: (§4)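 Visual scoring versus untreated plants (100% = plants dead, 0% = as control) followed roughly 3 weeks in the greenhouse after treatment. Plants grown in sandy loam pots had been sprayed on green parts at the one-leaf stage, 2–3 weeks post-sowing, with aqueous WP/EC preparations containing 0.5% additive, 600 l/ha, at 320 and/or 80 g/ha.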
# VIOTR = experiment: Herbicidal pre-emergence action 2a (greenhouse pots, visual scoring); format: in vivo, Viola tricolor; details: dosage 320 g/ha, visual scoring after about 3 weeks vs untreated controls
# Description: [table] a) Seeds of monocotyledonous and dicotyledonous weed plants and crop plants are placed in plastic or organic plant pots and covered with soil. The compounds of the invention, formulated in the form of wettable powders (WP) or as emulsion concentrates (EC), are then applied onto the surface of the covering soil as aqueous suspension or emulsion with addition of 0.5% additive at a water application rate of 600 1/ha (converted). After the treatment, the pots are placed in a greenhouse and kept under good growth conditions for the trial plants. After about 3 weeks, the effect of the preparations is scored visually in comparison with untreated controls as percentages. For example, 100% activity=the plants have died, 0% activity=like control plants. Tables B1 to B15 below show the effects of selected compounds of the general formula (I) according to Tables 1 and 2 on various harmful plants and an application rate corresponding to 320 g/ha and/or 80 g/ha, which were obtained by the experimental procedure mentioned above.
# AMARE [15] = experiment: as above; format: in vivo, Amaranthus retroflexus; details: dosage 320 g/ha, visual scoring after about 3 weeks vs untreated controls
# How it was run: as §3
# VERPE = experiment: as above; format: in vivo, Veronica persica; details: dosage 320 g/ha, visual scoring after about 3 weeks vs untreated controls
# How it was run: as §3
# LOLRI = experiment: as above; format: in vivo, Lolium rigidum; details: dosage 320 g/ha, visual scoring after about 3 weeks vs untreated controls
# How it was run: as §3
# AVEFA [16] = experiment: Herbicidal post-emergence action 1a (greenhouse pots, visual rating); format: in vivo, Avena fatua; details: Dosage 80 g/ha; rated visually about 3 weeks after treatment; 100% = plants have died, 0% = like control plants
# How it was run: as §4
# ALOMY [17] = experiment: as above; format: in vivo, Alopecurus myosuroides; details: Dosage 80 g/ha; rated visually about 3 weeks after treatment; 100% = plants have died, 0% = like control plants
# How it was run: as §4
# ABUTH = experiment: Herbicidal post-emergence action 1b (twin sowing, 1280 g/ha); format: in vivo, Abutilon theophrasti; details: dosage 1280 g/ha, visual rating about 3 weeks after treatment
# Experimental: as §1
SMILES,Post-emergence action at 1280 g/ha against DIGSA in % (DIGSA [1]) [%],Post-emergence action at 1280 g/ha against POAAN in % (POAAN [2]) [%],Pre-emergence action at 1280 g/ha against AMARE in % (AMARE [3]) [%],Pre-emergence action at 1280 g/ha against DIGSA in % (DIGSA [4]) [%],Pre-emergence action at 1280 g/ha against ECHCG in % (ECHCG [5]) [%],Pre-emergence action at 1280 g/ha against POAAN in % (POAAN [6]) [%],Pre-emergence action at 1280 g/ha against MATIN in % (MATIN [7]) [%],Pre-emergence action at 1280 g/ha against STEME in % (STEME [8]) [%],Post-emergence action at 1280 g/ha against STEME in % (STEME [9]) [%],Post-emergence action at 1280 g/ha against MATIN in % (MATIN [10]) [%],Post-emergence action at 1280 g/ha against ECHCG in % (ECHCG [11]) [%],further results
CC(C)=NOC(=O)COc1nn(-c2cnccn2)c(-c2ccc(F)nc2)c1Br [Example I-69],90,90,100,100,100,100,100,100,90,90,90,–
CCOC(=O)COc1nn(-c2nccnc2Cl)c(-c2ccc(F)nc2)c1Br [Example I-71],90,100,100,100,100,100,100,100,–,100,100,–
COC(=O)[C@@H](C)Oc1nn(-c2nccnc2Cl)c(-c2ccc(F)nc2)c1Br [Example I-72],100,100,100,100,100,100,100,100,90,100,100,Pre-emergence action against POLCO in % (POLCO): 90%; Pre-emergence action against AVEFA in % (AVEFA [12]): 80%; Pre-emergence action against ALOMY in % (ALOMY [13]): 90%; Post-emergence action against AMARE in % (AMARE [14]): 80%; Pre-emergence action against VIOTR in % (VIOTR): 90%; Pre-emergence action against AMARE in % (AMARE [15]): 100%; Pre-emergence action against VERPE in % (VERPE): 80%; Pre-emergence action against LOLRI in % (LOLRI): 100%; Post-emergence action against AVEFA in % (AVEFA [16]): 90%; Post-emergence action against ALOMY in % (ALOMY [17]): 90%
O=C(O)COc1nn(-c2nccnc2Cl)c(-c2ccc(F)nc2)c1Br [Example I-73],–,100,100,–,100,100,100,100,–,100,100,Post-emergence action at 1280 g/ha against ABUTH in % (ABUTH): 90%
CCOC(=O)COc1nn(-c2nccnc2F)c(-c2ccc(F)c(F)c2)c1Br [Example I-74],90,90,100,100,–,100,100,100,–,90,–,–
